Results as given in US7045532B2 (Millennium Pharmaceuticals, Inc., priority 1999, dated 2006).

Key:
ACE-2 = ACE-2 (Rattus norvegicus, UniProt Q5EGZ1); test: ACE-2 Competitive Substrate Assay, rat ACE-2; type: biochemical; conditions: Ki class; compounds tested in 5% DMSO, 12 compound concentrations
Experimental: ACE-2 enzymatic activity was assayed in microtitre plates by the following procedure. The ACE-2 assay buffer used contained 50 mM MES (Boehringer-Mannheim), 300 mM NaCl (Sigma) and 0.01% Brij-35 (Pierce Chemical Co.) at pH 6.5.
Reactions were mixed and incubated at 25° C.
The activity of the test compounds was investigated using the procedure outlined above. The compounds were tested in 5% DMSO. Enzyme activity was measured at 12 compound concentrations.

ACE (Sigma, A2580) = target: T1, ACE (Sigma, A2580) (Sus scrofa, UniProt F1RRW5); test: ACE enzymatic activity assay; type: biochemical, porcine; conditions: Ki class; compounds tested in 5% DMSO, 12 compound concentrations
T1 construct: ACE from porcine kidney; purchased Sigma A2580; host or cells: porcine kidney
T1 sequence (F1RRW5 34-1309): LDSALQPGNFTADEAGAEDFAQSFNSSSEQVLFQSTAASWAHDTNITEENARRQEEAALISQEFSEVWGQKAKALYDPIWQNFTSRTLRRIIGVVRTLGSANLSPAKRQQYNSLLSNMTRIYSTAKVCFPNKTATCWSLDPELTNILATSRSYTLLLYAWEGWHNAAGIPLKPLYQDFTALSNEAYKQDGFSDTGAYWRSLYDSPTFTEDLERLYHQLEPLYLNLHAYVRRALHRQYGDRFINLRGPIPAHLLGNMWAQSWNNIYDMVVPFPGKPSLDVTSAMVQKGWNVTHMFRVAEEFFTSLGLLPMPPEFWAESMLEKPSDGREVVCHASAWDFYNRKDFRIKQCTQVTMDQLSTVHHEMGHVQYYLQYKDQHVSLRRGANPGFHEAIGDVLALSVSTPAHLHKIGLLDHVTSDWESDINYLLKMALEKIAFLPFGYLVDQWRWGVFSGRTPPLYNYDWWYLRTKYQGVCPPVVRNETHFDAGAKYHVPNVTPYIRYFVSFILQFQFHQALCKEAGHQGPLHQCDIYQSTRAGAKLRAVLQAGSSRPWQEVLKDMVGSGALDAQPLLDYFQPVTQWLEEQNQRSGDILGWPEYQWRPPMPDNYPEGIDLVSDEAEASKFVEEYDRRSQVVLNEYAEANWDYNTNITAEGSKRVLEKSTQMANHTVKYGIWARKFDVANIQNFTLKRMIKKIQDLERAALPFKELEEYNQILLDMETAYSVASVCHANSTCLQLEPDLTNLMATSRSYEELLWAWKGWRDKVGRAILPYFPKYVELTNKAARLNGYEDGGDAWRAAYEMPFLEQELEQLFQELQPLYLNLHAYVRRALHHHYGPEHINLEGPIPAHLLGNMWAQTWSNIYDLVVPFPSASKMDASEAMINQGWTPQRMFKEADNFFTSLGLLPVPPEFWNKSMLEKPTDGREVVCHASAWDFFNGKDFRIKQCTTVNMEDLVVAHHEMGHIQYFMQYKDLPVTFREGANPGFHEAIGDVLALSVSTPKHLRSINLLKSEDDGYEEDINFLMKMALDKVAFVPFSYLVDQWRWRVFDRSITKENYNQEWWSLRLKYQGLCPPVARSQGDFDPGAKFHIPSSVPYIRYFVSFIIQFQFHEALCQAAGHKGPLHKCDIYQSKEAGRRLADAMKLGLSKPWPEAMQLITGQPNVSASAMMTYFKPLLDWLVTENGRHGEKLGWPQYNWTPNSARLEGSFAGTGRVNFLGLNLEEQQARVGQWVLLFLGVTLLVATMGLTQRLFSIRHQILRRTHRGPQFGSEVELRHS
Method in brief: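 ACE (1 nM final) in 50 mM HEPES, 300 mM NaCl, 0.01% Brij-35, pH 7.5, with compound in 5% DMSO at 12 concentrations, 25 °C. Substrate cleavage run ~30 min, stopped with EDTA; fluorescence read at excitation 320 nm, emission 405 nm.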

[1] = Pharmacokinetic profile in BBZDR rats (plasma samples); type: in vivo, rat (BBZDR); conditions: 100 and 300 mg/kg/day oral gavage, 0-24 hours after dosing
Experimental: To determine the pharmacokinetic profile of Compound HE, plasma samples were taken at 0, 0.5, 1, 2, 4, 8, 12, and 24 hours after dosing in both Compound HE dose groups.

[2] = Effect on appetite: food consumption in ICR mice; conditions: 100 mg/kg oral

Sequence of ACE-2 (Q5EGZ1 18-805): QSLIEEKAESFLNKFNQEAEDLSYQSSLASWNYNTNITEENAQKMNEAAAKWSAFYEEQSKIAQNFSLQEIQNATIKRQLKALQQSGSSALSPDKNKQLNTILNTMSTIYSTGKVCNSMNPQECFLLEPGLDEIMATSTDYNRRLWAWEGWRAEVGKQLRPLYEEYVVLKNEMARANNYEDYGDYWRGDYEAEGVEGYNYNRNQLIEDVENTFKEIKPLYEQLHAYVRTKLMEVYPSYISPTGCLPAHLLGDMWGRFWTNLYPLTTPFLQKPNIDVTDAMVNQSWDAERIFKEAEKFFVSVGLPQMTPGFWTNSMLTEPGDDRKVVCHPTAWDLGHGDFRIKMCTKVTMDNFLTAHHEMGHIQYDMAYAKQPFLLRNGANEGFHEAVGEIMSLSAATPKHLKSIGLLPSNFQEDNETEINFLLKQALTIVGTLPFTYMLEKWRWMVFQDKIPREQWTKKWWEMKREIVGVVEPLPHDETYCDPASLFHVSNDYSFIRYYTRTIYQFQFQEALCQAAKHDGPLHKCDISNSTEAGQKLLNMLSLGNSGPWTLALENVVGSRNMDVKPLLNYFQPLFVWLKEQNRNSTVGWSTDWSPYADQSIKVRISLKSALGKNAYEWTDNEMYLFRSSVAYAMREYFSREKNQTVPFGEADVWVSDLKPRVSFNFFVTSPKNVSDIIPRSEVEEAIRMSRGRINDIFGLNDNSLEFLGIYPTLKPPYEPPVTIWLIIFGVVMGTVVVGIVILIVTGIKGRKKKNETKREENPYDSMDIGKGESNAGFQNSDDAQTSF

CC(C)CC(N[C@@H](Cc1cncn1Cc1cc(Cl)cc(Cl)c1)C(=O)O)C(=O)O (single isomer, unassigned) [HE, 2-[1-Carboxy-2-[3-(3,5-dichloro-benzyl)-3H-imidazol-4-yl]-ethylamino)4-methyl-pentanoic acid]
Ki (ACE-2): < 0.1 µM
Ki (ACE (Sigma, A2580)): 10 to 50 µM
systemic exposure (plasma levels) [1]: relatively low systemic levels
reduction of food intake compared to vehicle ([2]; 1 hr after administration): about 40%
reduction of food intake compared to vehicle ([2]; 3 hr after administration): about 18%
